We go through one compound from US11207301B2, “Sphingosine 1 phosphate receptor agonists for neuroprotection” (RECEPTOS LLC, priority 2017, dated 2021).

The EC50 is the concentration that produces a half-maximal response. The low end stands for a more potent agent, the high end for a less potent agent.

Common to all, as to assay type: cell-based
Experiment [1] relates to AKT phosphorylation in primary mouse astrocytes. In words: AKT phosphorylation in primary mouse cortical astrocytes (AlphaLISA SureFire Ultra). Conditions: 10-minute exposure, mean of n=3. Here is the method: (§1) For the experiments using mouse and human primary astrocytes, ten-point concentration-response curves (90 nM-4.57 pM or 30 nM-1.52 pM) were generated for AKT and/or ERK phosphorylation in primary human and mouse cortical astrocytic cultures in response to a 10-minute treatment with ozanimod, Compound 3, Compound 1, or FTY720-P. AKT and ERK phosphorylation were quantified using AlphaLISA SureFire Ultra Assay kits and the EnVision Plate Reader. AKT and ERK phosphorylation within treated astrocytes were expressed as the mean change in signal intensity compared to the dimethyl sulfoxide (DMSO) vehicle and the half maximal effective concentration (EC50) was determined using non-linear regression.
(§2) Timed pregnant (E16) C57BL/6J female mice arrive to the test facility on a weekly basis and were housed and cared for according to appropriate protocols for this model. Primary mouse cortical astrocytes are harvested from P0-P2 pups. The newly born animals were deeply anesthetized on ice, decapitated, and the brains were rapidly removed and stored in ice-cold NbAstro media (BrainBits, LLC). Cells were dissociated from freshly dissected cortices by mechanical disruption in the presence of trypsin and DNase. Cells were put into a PDL coated T75 tissue culture flask containing 16 mL NbAstro Media and incubated at 37° C. 5% CO2. Once the mouse astrocytes had reached confluency in the T75 flask, they were detached using TripLE detachment reagent, pelleted at 300×g, expanded into two T225 PDL coated tissue culture flasks containing 40 mL of NbAstro and incubated at 37° C. 5% CO2. Once the astrocytes reached confluency in the T225 flasks they were detached using TrypLE detachment reagent, pelleted at 300×g, plated into PDL coated 96-well plates at a density of 10,000 cells per well in 200 μL NbAstro and incubated at 37° C. 5% CO2. Half of the media was replenished every 3-4 days. After 5-7 days of incubation, the P2 mouse astrocyte plates were utilized for the pERK and pAKT assays.
Cell lysis and detection of pAKT were performed according to the PerkinElmer AlphaLISA SureFire Ultra pAKT1/2/3 ([…]) assay protocol. Astrocytes were lysed in the 96-well plate following a 10 minute incubation with compounds with shaking at room temperature (RT). The astrocytic lysates (10 μL/well) were transferred into a 384-well OptiPlate. As specified by the assay protocol, an acceptor bead mix and a donor bead mix (5 μL/well for each) were added to the plate under subdued light. […] The plates were read on the EnVision Plate Reader to assess the pAKT levels.
(§3) The AKT and ERK phosphorylation data, collected by a Perkin Elmer EnVision Microplate Reader, was analyzed by non-linear regression (GraphPad Prism, version 7.03) to determine the EC50 values.

In experiment [2] the test system is ERK phosphorylation in primary rat astrocytes. The experiment can be described thus: ERK phosphorylation in primary rat astrocytes (MSD pERK assay). The conditions noted are these: 10-minute exposure, mean of n=3. The method, then:
(§4) For the experiments using rat primary astrocytes, eight-point concentration-response curves were generated for AKT and ERK phosphorylation in primary rat astrocytes cultures in response to a 10-minute treatment with ozanimod (100 nM-46 pM), Compound 3 (10 nM-5 pM), Compound 1 (10 nM-5 pM), or FTY720-P (10 nM-5 pM). Phosphorylation of AKT and ERK was quantified using Meso Scale Discovery assay kits (MSD Mutli-Spot Phopho-AKT (Ser473) Assay Kit and MSD Multi-Spot MAP Kinase Phosphoprotein Assay Whole Cell Lysate Kit) and imaging platform. AKT and ERK phosphorylation within treated astrocytes were assessed as the mean change in signal intensity compared to DMSO vehicle and the half maximal effective concentration (EC50) was determined using non-linear regression.
(§5) Embryonic day18 (E18) rat cortices were purchased from BrainBits LLC. (Springfield, Ill.) and were cultured according to the supplier's protocol. Briefly, cortices were incubated at 37° C. for 10 minutes in activated papain solution before trituration in hibernation medium containing B27 supplement using a modified siliconized glass Pasteur pipette. The cell suspension was centrifuged at 1100×g for 1 minute at room temperature (RT). The cell pellet was then resuspended in NbAstro medium (BrainBits LLC.) and the live cell density was assessed using a cell counter. Primary cells were plated at a density of 7500 cells/cm2 in T75 tissue culture flasks coated with poly-D-lysine (PDL) in a total volume of 12 mL of NbAstro media, and incubated for 10-14 days at 37° C. 5% CO2. After 10-14 days, primary astrocytes in passage 0 (P0) that had reached confluency in the T75 flasks were detached using TrypLE detachment reagent, pelleted at 300×g, and plated into poly-d-lysine coated T225 flasks in 20 mL of NbAstro media, and incubated for another 7 days at 37° C. 5% CO2. After 7 days, primary P1 astrocytes in confluent T225 flasks were detached using TrypLE detachment reagent, pelleted at 300×g, and plated intopoly-d-lysine coated 96-well plates at 10,000 cells per well in 200 μL of NbAstro media, and incubated for 7 days at 37° C. 5% CO2. After 7 days, P2 primary astrocytes were utilized for pAKT and pERK assays.
The pERK (phosphorylated ERK)/pMAPkinase assay was performed according to the manufacturer's protocol. Briefly, MSD pERK/pMAPkinase plates were blocked for 1-2 hours by adding 150 μL of blocker A prepared in 1× Tris wash buffer. […] Following antibody incubation, plates were washed three times with 150 μL of 1× Tris wash buffer and 1× read buffer (150 μL/well) was added. Finally, the plates were read in the MSD imager platform to assess the pERK levels.
(§6) AKT and ERK phosphorylation data were analyzed by non-linear regression (GraphPad Prism, version 6) to determine the EC50 values.

The subject of experiment [3] is AKT phosphorylation in primary rat astrocytes. In words: AKT phosphorylation in primary rat astrocytes (MSD pAKT assay). The conditions noted are these: 10-minute exposure, mean of n=4. Here is the method: as §4, §5
The pAKT (phosphorylated AKT) assay was performed according to the manufacturer's protocol. Briefly, MSD pAKT plates were blocked for 1-2 hours by adding 150 μL of blocker A prepared in 1× Tris wash buffer. […] Following antibody incubation, plates were washed three times with 150 μL of 1× Tris wash buffer and 1× read buffer (150 μL/well) was added. Finally, plates were read in the MSD imager platform to assess pAKT levels.
as §6

Experiment [4] relates to ERK phosphorylation in primary human astrocytes. In words: ERK phosphorylation in primary human cortical astrocytes (AlphaLISA SureFire Ultra). Conditions: 10-minute exposure, n=3-5. Here is the method:
as §1
Primary human astrocytes were purchased from ScienCell Research Laboratories, Inc. and cultured according to the supplier's protocol. The astrocytes were obtained from the human cerebral cortex, cryopreserved at passage one, and delivered frozen. The frozen vials of cells were gently thawed in a 37° C. water bath. Once the contents of the vial were completely thawed, the cell solution was dispensed into a poly-L-lysine (PLL) coated T75 tissue culture flask with 16 mL of human Astrocyte Media, (ScienCell Research Laboratories, Inc.) and incubated at 37° C. 5% CO2. Once the human astrocytes had reached confluency in the T75 flask, they were detached using trypsin/EDTA 0.25%, pelleted at 300×g, split into two PLL coated T225 tissue culture flasks in 40 mL of astrocyte media, and incubated at 37° C. 5% CO2. Once the astrocytes reached confluency in the T225 flasks, they were detached using trypsin/EDTA 0.25% solution, pelleted at 300×g, plated into poly-D-lysine (PDL) coated 96-well plates at a density of 10,000 cells per well in 200 μL human Astrocyte Media, and incubated at 37° C. 5% CO2. Half of the media was replenished every 3-4 days. After 5-7 days of incubation, the P2 human astrocyte plates were utilized for the pERK and pAKT assays.
Cell lysis and detection of pERK were performed according to the PerkinElmer AlphaLISA SureFire Ultra p-ERK1/2 (Thr202/TYR 204) assay protocol. Astrocytes were lysed in the 96-well plate following a 10 minute incubation with compounds with shaking at RT. The astrocytic lysates (10 μL/well) were transferred into a 384-well OptiPlate. As specified by the assay protocol, an acceptor bead mix and a donor bead mix (5 μL/well for each) were added to the plate under subdued light. Plates were sealed with adhesive plate seals and incubated in the dark for 2 hours at RT. The plates were read on the EnVision Plate Reader to assess the pERK levels.
as §3
For orientation: Alpha assays give light when donor and acceptor beads are brought close together.

The subject of experiment [5] is ERK phosphorylation in primary mouse astrocytes. The experiment can be described thus: ERK phosphorylation in primary mouse cortical astrocytes (AlphaLISA SureFire Ultra). Conditions: 10-minute exposure. Here is the method: as §1
as §2, with “Once the astrocytes reached confluency in the T225 flasks they were detached using TrypLE detachment reagent, pelleted at 300×g, plated into PDL coated 96-well plates at a density of 10,000 cells per well in 200 μL NbAstro and incubated at 37° C. 5% CO2. Half of the media was replenished every 3-4 days. After 5-7 days of incubation, the P2 mouse astrocyte plates were utilized for the pERK and pAKT assays.” left out
Cell lysis and detection of pERK were performed according to the PerkinElmer AlphaLISA SureFire Ultra p-ERK1/2 (Thr202/TYR 204) assay protocol. […] The plates were read on the EnVision Plate Reader to assess the pERK levels.
as §3

On to `CCCCCCCCc1ccc(CC[C@](N)(CO)COP(=O)(O)O)cc1` [FTY720-P, reference compound], for which the EC50 in experiment [1] stood at 0.09 nM; in experiment [2], 0.16 nM; in experiment [3] it was 0.17 nM; in experiment [4] it was 0.73 nM; in experiment [5], 0.14 nM.
